Activation data for 29 compounds are collected here from patent US10941143B2, “Imidazo [1,5-a]pyridine compounds and their use” (Alterity Therapeutics Limited, priority 2019, dated 2021).

This assay has as its system human neuroblastoma line BE(2)-M17 (M17) cells. Briefly: Measurement of Fe efflux from cells. The format is cell-based. The conditions noted are these: M17 cells pre-loaded with 57Fe, compound 20 μM for 2 h, percentage increase of Fe in media relative to media without compound, read-out: % Fe Efflux Range. The method, then: Method I: Measurement of Fe Efflux from Cells
Compounds of the current invention were assessed for their ability to efflux iron (Fe) from a cell using the following protocol.
The human neuroblastoma line BE(2)-M17 (M17) cell cultures were acquired from Sigma Aldrich (Catalogue #: 95011816). M17 Cells were maintained in Opti-MEM reduced serum media supplemented with 10% fetal bovine serum (Bovogen, SFBSF) and passaged twice weekly. Cells were cultured at 37° C. in the presence of 5% CO2. Culture supplies were sourced from Thermo Fisher unless otherwise stated.
A solution of ^57Fe cold isotope was prepared by dissolving ^57Fe metal (>95% enrichment, Trace Sciences International) in concentrated HCl to give a final concentration of 573 mM. From this master solution, a 10 mM working solution was prepared in sterile water. The working solution was used within two months of preparation.
M17 cells were loaded with iron initially by seeding into 48-well plates at a density of 0.15×10^6 cells per well in 0.5 mL media. After 48 h, old media was discarded. Fresh media was supplemented with 20 μM ^57Fe isotope, from the 10 mM ^57Fe working solution. Cells received 0.2 mL of this ^57Fe enriched media and were returned to the incubator for 20 h. The ability of experimental compounds to efflux iron was determined by the dissolution of compounds in DMSO and diluted in Hanks' Balanced Salt Solution (HBSS) for treatment of M17 cells. After ^57Fe incubation, cells were rinsed twice with HBSS and treated with 0.15 mL trial compound for 2 h at a concentration of 20 μM. All assays included a relevant vehicle (0.4%-0.8% DMSO) as well as a positive control (20 μM). Following the treatment period, 0.1 mL of media was collected from cells and the extracellular ^57Fe content was analysed via inductively coupled mass spectrometry (ICP-MS, Agilent 7700x series instrument).
To perform this protocol the following supplies were purchased from Sigma Aldrich: anhydrous dimethyl sulfoxide (DMSO, Catalogue #: 276855), Hanks' Balanced Salt Solution supplemented with 20 mM HEPES and 4.2 mM Sodium Bicarbonate (HBSS, pH: 7.4, Catalogue #: H1387).
After 2 h the Fe levels in the media were measured and the increase determined as a percentage increase relative to the cell media in the absence of the compound.

For `Oc1cccnc1-c1nc(-c2cccc(Cl)c2O)n2ncccc12` [Compound 122], the activation at 20 µM was above 150%.

As to `Oc1ccccc1-c1nc(-c2cc(Cl)cc(Cl)c2O)n2ccccc12` [Compound 7], the activation at 20 µM was below 30%.

On to `Oc1cccnc1-c1nc(-c2c(O)cccc2F)n2ccccc12` [Compound 79], for which the activation at 20 µM lay within 100 to 150%.

`Oc1cccnc1-c1nc(-c2c(O)cccc2Cl)n2ccccc12` [Compound 80]: the activation at 20 µM was in the range of 30 to 100%.

Take `Oc1ccccc1-c1nc(-c2cccc(F)c2O)n2ccccc12` [Compound 10, 2-Fluoro-6-(1-(2-hydroxyphenyl)imidazo[1,5-a]pyridin-3-yl)phenol]: the activation at 20 µM lay in the range of 30 to 100%.

With `Oc1cnccc1-c1nc(-c2ccccc2O)n2ccccc12` [Compound 110], the activation at 20 µM is above 150%.

`Oc1ccccc1-c1nc(-c2ccccc2O)n2cccnc12` [Compound 107, 2,2′-(Imidazo[1,5-a]pyrimidine-6,8-diyl)diphenol]: the activation at 20 µM was in the range of 30 to 100%.

Turning to `Oc1cccnc1-c1nc(-c2cccc(F)c2O)n2ncccc12` [Compound 121], the activation at 20 µM is above 150%.

On to `Oc1cnccc1-c1nc(-c2cccc(Cl)c2O)n2ccccc12` [Compound 112], for which the activation at 20 µM fell in the range of 100 to 150%.

In the case of `Oc1ccc(F)cc1-c1nc(-c2cccnc2O)c2ccccn12` [Compound 144, 3-(3-(5-Fluoro-2-hydroxyphenyl)imidazo[1,5-a]pyridin-1-yl)pyridin-2-ol], the activation at 20 µM fell in the range of 100 to 150%.

For the compound `COC(=O)c1ccccc1-c1nc(-c2ccccc2O)c2ccccn12` [Compound 20], the activation at 20 µM was below 30%.

`Cc1ccc(O)c(-c2nc(-c3ccncc3O)c3cnccn23)c1` [Compound 180]: the activation at 20 µM was above 150%.

As for `Oc1ccccc1-c1nc(-c2c(Cl)cccc2Cl)n2ccccc12` [Compound 24], the activation at 20 µM is below 30%.

Consider `Oc1cnccc1-c1nc(-c2ccccc2O)n2ncccc12` [Compound 181], for which the activation at 20 µM lay in the range of 100 to 150%.

With `Oc1ccc(F)cc1-c1nc(-c2ncccc2O)c2ccccn12` [Compound 83], the activation at 20 µM was in the range of 100 to 150%.

For `Oc1ncccc1-c1nc(-c2cccc(F)c2O)n2ccccc12` [Compound 148], the activation at 20 µM was 30 to 100%.

`COC(=O)c1ccccc1-c1nc(-c2ncccc2O)c2ccccn12` [Compound 126]: the activation at 20 µM is below 30%.

On to `Cc1cccc(-c2nc(-c3cccnc3O)c3ccccn23)c1O` [Compound 142], for which the activation at 20 µM is 30 to 100%.

Consider `Oc1ncccc1-c1nc(-c2cc(F)cc(F)c2O)n2ccccc12` [Compound 145], for which the activation at 20 µM lay within 100 to 150%.

Consider `COc1ccncc1-c1nc(-c2ccccc2O)n2ccccc12` [Compound 153], for which the activation at 20 µM was below 30%.

For the compound `Oc1ccncc1-c1nc(-c2cc(F)ccc2O)n2ccccc12` [Compound 159], the activation at 20 µM was in the range of 30 to 100%.

With `Oc1cccnc1-c1nc(-c2cccc(F)c2O)n2ccccc12` [Compound 81, 2-(3-(3-Fluoro-2-hydroxyphenyl)imidazo[1,5-a]pyridin-1-yl)pyridin-3-ol], the activation at 20 µM was above 150%.

As to `Oc1ccncc1-c1nc(-c2ccccc2O)n2ccccc12` [Compound 158], the activation at 20 µM lay within 30 to 100%.

Take `Oc1cccc(F)c1-c1nc(-c2cccnc2O)c2ccccn12` [Compound 152]: the activation at 20 µM was 30 to 100%.

Regarding `Oc1ccccc1-c1nc(-c2cccc(Cl)c2)n2ccccc12` [Compound 27], the activation at 20 µM was below 30%.

`Oc1cnccc1-c1nc(-c2ccccc2O)n2ccncc12` [Compound 174]: the activation at 20 µM is above 150%.

Take `Oc1ccncc1-c1nc(-c2cc(F)cc(F)c2O)n2ccccc12` [Compound 160]: the activation at 20 µM fell in the range of 30 to 100%.

Consider `Oc1cc(C(F)(F)F)ccc1-c1nc(-c2cccc(F)c2O)n2ccccc12` [Compound 98, 2-(3-(3-Fluoro-2-hydroxyphenyl)imidazo[1,5-a]pyridin-1-yl)-5-(trifluoromethyl)phenol], for which the activation at 20 µM was below 30%.

In the case of `Oc1ccncc1-c1nc(-c2c(O)cccc2F)n2ccccc12` [Compound 161], the activation at 20 µM was 30 to 100%.
